Here are results for 65 compounds from patent publication US9499502B2, “5-substituted iminothiazines and their mono- and dioxides as BACE inhibitors, compositions, and their use” (Merck Sharp & Dohme Corp., priority 2011, dated 2016).

pKi: −log10 of the molar value.

The target of the first test is soluble human BACE1 catalytic domain (Homo sapiens (Human), UniProt P56817). Description: BACE1 HTRF FRET Assay. Conditions: BACE1 Ki (nM).
Sequence of soluble human BACE1 catalytic domain (P56817 75-416): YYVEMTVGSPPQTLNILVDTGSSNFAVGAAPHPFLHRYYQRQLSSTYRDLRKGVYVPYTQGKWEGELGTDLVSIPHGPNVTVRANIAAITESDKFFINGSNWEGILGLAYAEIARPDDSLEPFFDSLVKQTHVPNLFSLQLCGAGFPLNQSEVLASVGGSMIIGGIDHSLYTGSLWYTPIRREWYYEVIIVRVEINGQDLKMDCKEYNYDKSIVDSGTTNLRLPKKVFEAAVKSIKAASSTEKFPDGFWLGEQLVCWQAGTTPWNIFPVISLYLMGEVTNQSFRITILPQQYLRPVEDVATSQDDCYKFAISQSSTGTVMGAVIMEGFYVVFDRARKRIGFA
The Ki is the equilibrium dissociation constant of an inhibitor or competing ligand from its target. For `Cc1nc2cc(CC3(C)C(=N)N[C@](C)(c4cc(F)ccc4F)CS3(=O)=O)ccc2o1` (single isomer, unassigned) [Example 32a-a], the affinity, expressed as Ki, was 3860 nM.

The test is the same for the next values; noted with them: BACE1 Ki (nM), Ki calculated from IC50 using the Cheng-Prusoff equation.
Consider `CC1(C)C(=N)N[C@](C)(c2cc(NC(=O)c3ncc(F)cc3F)ccc2F)CS1(=O)=O` [Example 2], for which the Ki is below 5 nM.

The same test, now with this note: at 10 μM.
On to `Cc1nc2cc(CC3(C)C(=N)N[C@](C)(c4cc(F)ccc4F)CS3(=O)=O)ccc2s1` (stereo partly drawn) [Example 32-b], for which the “BACE1 inhibition, % Inh. at 10 μM” value is listed as 7% Inh at 10 μM.

The same test, now with this note: read-out: BACE1 % Inh. at 10 μM, at 10 μM.
Take `COc1cccc2cc(-c3ccc(F)c([C@]4(C)CS(=O)(=O)C(C)(C)C(=N)N4)n3)[nH]c12` [Example 16e]: the inhibition at 10 µM turned out to be 31%. Still for that read-out and setting: in the case of `CN(C)CC(=O)Nc1ccc(F)c([C@]2(C)CS(=O)(=O)C(C)(C)C(=N)N2)c1` [Example 9ay] it was 23%.

Still in this test, the particulars now being: read-out: BACE1 Ki.
A word on the pKi: it is the negative decadic logarithm of the Ki, by convention in mol/L. As to `CC1(C)C(=N)N[C@](C)(c2sc(-c3cncc(C#N)c3)cc2F)CS1(=O)=O` [Example 27ap], the pKi is 6.99.

As to `CC1(C)C(=N)N[C@](C)(c2sc(-c3cccc(OC(F)(F)F)c3)cc2Cl)CS1(=O)=O` [Example 27h], the pKi was 7.15. The same measure, in the same setting: in the case of `COc1cc(-c2cc(Cl)c([C@]3(C)CS(=O)(=O)C(C)(C)C(=N)N3)s2)ccn1` [Example 27k] it was 6.03; in that of `C[C@@]1(c2sc(-c3cccc(C#N)c3)cc2F)CS(=O)(=O)[C@@](C)(c2ccccn2)C(=N)N1` [Example 27bo-a], 6.88.

For the compound `CC1(C)C(=N)N[C@](C)(c2sc(-c3cccc(-c4nnco4)c3)cc2F)CS1(=O)=O` [Example 27ar], the pKi is 7.96. Still for that read-out and setting: in the case of `COc1cccc(C[C@@]2(C)C(=N)N[C@](C)(c3ccc(F)cc3F)CS2(=O)=O)c1` [Example 32i-a] it was 5.51; in that of `C[C@@]1(c2sc(-c3nnc(-c4ccc(Cl)cc4)o3)cc2F)CS(=O)(=O)[C@@](C)(c2ccccn2)C(=N)N1` [Example 27bz-a], 7.29. The same measure, in the same setting: in the case of `COCC1(COC)C(=N)N[C@](C)(c2sc(-c3cc4cccc(OC)c4[nH]3)cc2Cl)CS1(=O)=O` [Example 27bv] it was 7.10; in that of `COc1cccc(C[C@]2(C)C(=N)N[C@](C)(c3ccc(F)cc3F)CS2(=O)=O)c1` [Example 32i-b], 5.42. Still for that read-out and setting: in the case of `CC1(C)C(=N)N[C@](C)(c2sc(-c3cncc(-c4nnco4)c3)cc2F)CS1(=O)=O` [Example 27az] it was 7.85.

Turning to `C[C@@]1(c2sc(-c3cccc(-c4nnco4)c3)cc2F)CS(=O)(=O)[C@](C)(CC(F)(F)F)C(=N)N1` [Example 27bk-b], the negative logarithm of the Ki (pKi) is 6.98. On the same count and under the same terms, in the case of `C[C@@]1(c2ccc(F)cc2F)CS(=O)(=O)[C@@](C)(c2cccc(OCC3CC3)c2)C(=N)N1` [Example 34b] it was 5.95. The same measure, in the same setting: in the case of `C[C@@]1(c2ccc(F)cc2F)CS(=O)(=O)[C@](C)(Cc2cccc(Br)c2)C(=N)N1` [Example 32j-b] it was 5.90; in that of `CC1(C)C(=N)N[C@](C)(c2cc(-c3cncc(-c4cnco4)c3)cs2)CS1(=O)=O` [Example 27al], 7.03. On the same count and under the same terms, in the case of `COCC1(COC)C(=N)N[C@](C)(c2sc(-c3cccc(-c4nnco4)c3)cc2Cl)CS1(=O)=O` [Example 27bu] it was 5.93; in that of `CC1(C)C(=N)N[C@](C)(c2cc(-c3cccc(-c4nnco4)c3)cs2)CS1(=O)=O` [Example 27ah], 7.38.

The test is the same for the next values; noted with them: read-out: BACE1 Ki; Ki calculated from IC50 using the Cheng-Prusoff equation.
`C[C@]1(CC2CCOCC2)C(=N)N[C@](C)(c2cc(NC(=O)c3ccc(F)cn3)ccc2F)CS1(=O)=O` [Example 9cr-a]: the pKi is 8.68. Same read-out and setting: in the case of `CC[C@@]1(C)C(=N)N[C@](C)(c2cc(NC(=O)c3ccc(OC)cn3)ccc2F)CS1(=O)=O` [Example 9cm-a] it was 8.25; in that of `C[C@@]1(c2cc(NC(=O)c3ccc(F)cn3)ccc2F)CS(=O)(=O)[C@](C)(CC2CC2)C(=N)N1` [Example 9dh-b], 7.32. On the same count and under the same terms, in the case of `CC1(C)C(=N)N[C@](C)(c2sc(-c3cc(F)cc(-c4cnco4)c3)cc2Cl)CS1(=O)=O` [Example 27aa] it was 7.58. In the case of `CC1(C)C(=N)N[C@](C)(c2sc(C(=O)NCc3cccc(F)c3)cc2Cl)CS1(=O)=O` [Example 22i], the pKi was 5.94. On the same count and under the same terms, in the case of `CC1(C)C(=N)N[C@](C)(c2cc(NC(=O)c3ccc(C(F)(F)F)cn3)ccc2F)CS1(=O)=O` [Example 6] it was 9.15; in that of `CC1(C)C(=N)N[C@](C)(c2sc(-c3cccc(-c4ccno4)c3)cc2Cl)CS1(=O)=O` [Example 27d], 7.19. Still for that read-out and setting: in the case of `CC1(C)C(=N)N[C@](C)(c2sc(C(=O)NCc3ccc(Cl)cc3)cc2Cl)CS1(=O)=O` [Example 22k] it was 6.06; in that of `COc1ccc(C(=O)Nc2ccc(F)c([C@]3(C)CS(=O)(=O)[C@@](C)(c4ccccn4)C(=N)N3)c2)nc1` [Example 9cx-a], 8.15. Still for that read-out and setting: in the case of `C[C@@]1(c2cc(NC(=O)c3ccc(F)cn3)ccc2F)CS(=O)(=O)[C@@](C)(c2cc(C(F)(F)F)ccn2)C(=N)N1` [Example 9ed-a] it was 8.80; in that of `CC1(C(=O)Nc2ccc(F)c([C@]3(C)CS(=O)(=O)C(C)(C)C(=N)N3)c2)CC1` [Example 9aj], 5.83. In the case of `C[C@@]1(c2cc(NC(=O)c3ccc(F)cn3)ccc2F)CS(=O)(=O)[C@@](C)(c2ccccc2F)C(=N)N1` [Example 9dn-a], the negative logarithm of the Ki (pKi) is 7.67. Still for that read-out and setting: in the case of `CC1(C)C(=N)N[C@](C)(c2sc(C(=O)NCc3ccc4cnccc4c3)cc2Cl)CS1(=O)=O` [Example 22d] it was 5.33; in that of `Cc1cccc(CNC(=O)c2cc(Cl)c([C@]3(C)CS(=O)(=O)C(C)(C)C(=N)N3)s2)n1` [Example 22c], 5.10.

`CC1(C)C(=N)N[C@](C)(c2sc(C(=O)Nc3cccc(C(F)(F)F)n3)cc2Cl)CS1(=O)=O` [Example 22]: the negative-log Ki (pKi) is 6.76. Same read-out and setting: in the case of `CC1(C)C(=N)N[C@](C)(c2sc(C(=O)NCc3cccc(Cl)c3)cc2Cl)CS1(=O)=O` [Example 22l] it was 5.90; in that of `CC(C)[C@@]1(C)C(=N)N[C@](C)(c2cc(NC(=O)c3ccc(F)cn3)ccc2F)CS1(=O)=O` [Example 9ea-a], 7.50.

`COc1ccc(-c2nnc(-c3cc(Cl)c([C@]4(C)CS(=O)(=O)C(C)(C)C(=N)N4)s3)o2)cc1` [Example 27bd]: the pKi was 7.12. On the same count and under the same terms, in the case of `CC1(C)C(=N)N[C@](C)(c2c(F)c(F)cc(NC(=O)c3ccc(Cl)cn3)c2F)CS1(=O)=O` [Example 9ab] it was 8.02. The same measure, in the same setting: in the case of `C[C@@]1(c2cc(NC(=O)c3ccc(Cl)cn3)ccc2F)CS(=O)(=O)[C@](C)(CC2CC2)C(=N)N1` [Example 9di-b] it was 7.81. Still for that read-out and setting: in the case of `CC1(C)C(=N)N[C@](C)(c2sc(C(=O)NCc3cnsn3)cc2Cl)CS1(=O)=O` [Example 22r] it was 6.73. In the case of `CC1(C)C(=N)N[C@](C)(c2sc(C(=O)NCc3ccc(F)cc3)cc2Cl)CS1(=O)=O` [Example 22j], the negative logarithm of the Ki (pKi) was 6.12. As to `Cc1noc(C(=O)Nc2ccc(F)c([C@]3(C)CS(=O)(=O)C(C)(C)C(=N)N3)c2)n1` [Example 9h], the negative logarithm of the Ki (pKi) was 8.57. Turning to `CC1(C)C(=N)N[C@](C)(c2cc(NC(=O)c3ccc(F)cc3F)ccc2F)CS1(=O)=O` [Example 9f], the negative-log Ki (pKi) is 7.96. On the same count and under the same terms, in the case of `CC1(C)C(=N)N[C@](C)(c2cc(NC(=O)c3cnc(C(F)(F)F)cn3)ccc2F)CS1(=O)=O` [Example 9e] it was 9.15. The same measure, in the same setting: in the case of `CC1(C)C(=N)N[C@](C)(c2sc(C(=O)NCc3cnoc3)cc2Cl)CS1(=O)=O` [Example 22q] it was 6.45; in that of `C[C@]1(CC2CCOCC2)C(=N)N[C@](C)(c2cc(NC(=O)c3ccc(Cl)cn3)ccc2F)CS1(=O)=O` [Example 9cs-a], 8.80. Same read-out and setting: in the case of `CC1(C)C(=N)N[C@](C)(c2cc(NC(=O)c3ncc(F)cc3F)ccc2F)CS1(=O)=O` [Example 2] it was 9.05; in that of `CC1(C)C(=N)N[C@](C)(c2cc(NC(=O)CC3CC3)ccc2F)CS1(=O)=O` [Example 9ar], 6.04; in that of `Cc1nc(C(=O)Nc2ccc(F)c([C@]3(C)CS(=O)(=O)C(C)(C)C(=N)N3)c2)no1` [Example 9g], 8.72.

For the compound `CC1(C)C(=N)N[C@](C)(c2cc(NC(=O)c3ccc(OC(F)F)cn3)ccc2F)CS1(=O)=O` [Example 9c], the negative logarithm of the Ki (pKi) is 9.22.

Consider `CC1(C)C(=N)N[C@](C)(c2cc(NC(=O)CC(F)(F)F)ccc2F)CS1(=O)=O` [Example 9ag], for which the negative-log Ki (pKi) is 6.18. Take `CC(=O)Nc1ccc(F)c([C@]2(C)CS(=O)(=O)C(C)(C)C(=N)N2)c1` [Example 9an]: the pKi is 5.84. The same measure, in the same setting: in the case of `CC1(C)C(=N)N[C@](C)(c2cc(NC(=O)C3CCC3)ccc2F)CS1(=O)=O` [Example 9aq] it was 6.32; in that of `CC1(C)C(=N)N[C@](C)(c2sc(C(=O)NCc3ccncn3)cc2Cl)CS1(=O)=O` [Example 22t], 5.50.

Staying with this test, now noted: read-out: BACE1 inhibition, % Inh. at 10 μM, at 10 μM.
As for `CC1(C)C(=N)N[C@](C)(c2cc([N+](=O)[O-])ccc2F)CS1(=O)=O` [Example 2-1], the inhibition at 10 µM came to 45%. On the same count and under the same terms, in the case of `C[C@@]1(c2cc(N)ccc2F)CS(=O)(=O)[C@](C)(CC2CC2)C(=N)N1` [Entry 48] it was 37%.

The test is the same for the next values; noted with them: read-out: BACE1 inhibition, Ki.
For `C[C@]1(CC2CC2)C(=N)N[C@](C)(c2cc(N)ccc2F)CS1(=O)=O` [Entry 47], the negative-log Ki (pKi) is 5.74. The same measure, in the same setting: in the case of `CC1(C)C(=N)N[C@](C)(c2cc(N)cc(Cl)c2F)CS1(=O)=O` [Example 2A-7] it was 5.51. Still for that read-out and setting: in the case of `C[C@@]1(c2cc(N)ccc2F)CS(=O)(=O)[C@@](C)(c2ccccn2)C(=N)N1` [Entry 76] it was 5.18; in that of `C[C@@]1(c2cc(N)ccc2F)CS(=O)(=O)[C@@](C)(c2cc(C(F)(F)F)ccn2)C(=N)N1` [Entry 72], 5.85. Same read-out and setting: in the case of `CC1(C)C(=N)N[C@](C)(c2nc(N)ccc2F)CS1(=O)=O` [Example 2F-3] it was 5.21; in that of `C[C@]1(CC2CCOCC2)C(=N)N[C@](C)(c2cc(N)ccc2F)CS1(=O)=O` [Entry 53], 5.89; in that of `C[C@@]1(c2cc(N)ccc2F)CS(=O)(=O)[C@@](C)(C2CCC2)C(=N)N1` [Entry 39], 5.77. For `CC1(C)C(=N)N[C@](C)(c2cccc(Cl)c2F)CS1(=O)=O` [Entry 7], the pKi is 5.85.
